# Target: T1, Phenylethanolamine N-methyltransferase (Bos taurus, UniProt P10938)
# T1 sequence (P10938 whole entry): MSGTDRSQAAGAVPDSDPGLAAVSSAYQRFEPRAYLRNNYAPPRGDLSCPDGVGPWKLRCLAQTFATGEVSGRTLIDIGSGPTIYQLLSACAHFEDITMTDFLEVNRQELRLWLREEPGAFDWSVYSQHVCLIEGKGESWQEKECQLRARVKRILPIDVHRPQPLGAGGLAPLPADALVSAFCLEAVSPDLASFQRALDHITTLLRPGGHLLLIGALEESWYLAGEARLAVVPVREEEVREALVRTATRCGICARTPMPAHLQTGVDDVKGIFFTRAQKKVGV
# Assay: Inhibitory activity against bovine adrenal norepinephrine N-methyl-transferase was determined
row,SMILES,Ki [µM]
1,C[C@H](N)Cc1ccccc1 [DEXTROAMPHETAMINE],442
2,NC(CC1CCCCC1)c1ccccc1 (stereo not given),> 1000
3,N[C@@H](CO)c1ccccc1,88
4,C[C@@H](N)Cc1ccccc1 [LEVAMFETAMINE],1380
5,CCC(N)Cc1ccccc1 (stereo not given),> 1000
6,N[C@H](CO)Cc1ccccc1 [L-PHENYLALANINOL],664
7,NC(CO)CC1CCCCC1 (racemic),47
8,N[C@H](CO)CC1CCCCC1,125
9,CCCC(N)c1ccccc1 (stereo not given),> 1000
10,CCCC(N)Cc1ccccc1 (stereo not given),> 1000
11,NC(Cc1ccccc1)Cc1ccccc1,> 1000
12,N[C@@H](CO)CC1CCCCC1,33
13,NC(CO)Cc1ccccc1 (racemic),385
14,NC(CO)c1ccccc1 (racemic),1220
15,N[C@@H](CO)Cc1ccccc1,379

# From ChEMBL document CHEMBL1121959, “Probes of the active site of norepinephrine N-methyltransferase: effect of hydrophobic and hydrophilic interactions on side-chain binding of amphetamine and alpha-methylbenzylamine” (J Med Chem, 1982)
